Activity calls are given as the source filed them. The calls are words filed in the database; no cut-off is given here.
Experiments:
[1] = system: U-87MG ATCC; assay: Inhibition of TrxR in human U87 cells at IC20 incubated for 1 hr and measured after 4 hrs by TRFS-GREEN dye based fluorescence microscopic analysis; assay type: cell-based
[2] = species: Homo sapiens; assay: Inhibition of TrxR in human H6PX cells assessed as reduction in intracellular thiol levels at IC20 after 1 hr by DNTB reagent based assay relative to control; assay type: cell-based; parameters: scale not given: the % may be the effect or the level left
[3] = species: Homo sapiens; assay: Inhibition of TrxR in human H6PX cells at IC20 incubated for 1 hr and measured after 4 hrs by TRFS-GREEN dye based fluorescence microscopic analysis; assay type: cell-based
[4] = Anticlonogenic activity against human H6PX cells assessed as ratio of the number of colonies to the number of cells seeded at IC20 incubated for 14 days followed by replating and measured after 2 weeks by crystal violet staining based microscopic analysis (reference value: 100%); assay type: functional
[5] = system: U-87 MG; assay: Antiproliferative activity against human U87 cells assessed as reduction in cell viability after 14 hrs by CCK8 assay; assay type: functional, cell-based, U-87MG ATCC
[6] = system: U-87 MG; assay: Induction of apoptosis in human U87 cells assessed as viable cells at IC20 after 4 hrs by AnnexinV-FITC/PI staining based flow cytometry analysis (reference value: 93.1%); assay type: functional, U-87MG ATCC
[7] = Induction of apoptosis in human H6PX cells assessed as viable cells at IC20 after 4 hrs by AnnexinV-FITC/PI staining based flow cytometry analysis (reference value: 90.3%); assay type: functional
[8] = system: U-87 MG; assay: Induction of apoptosis in human U87 cells assessed as reduction in bcl2 gene expression at IC20 after 4 hrs by RT-PCR analysis relative to untreated control; assay type: functional, U-87MG ATCC
[9] = Induction of apoptosis in human H7PX cells assessed as reduction in bcl2 gene expression at IC20 after 4 hrs by RT-PCR analysis relative to untreated control; assay type: functional
[10] = system: U-87 MG; assay: Induction of endoplasmic reticulum stress in human U87 cells assessed as DDIT3 expression at IC20 after 2 hrs by ELISA relative to control; assay type: functional, U-87MG ATCC
[11] = system: U-87 MG; assay: Induction of endoplasmic reticulum stress in human U87 cells assessed as DNAJC3 expression at IC20 after 1 hr by ELISA relative to control; assay type: functional, U-87MG ATCC
[12] = system: U-87 MG; assay: Induction of ROS generation in human U87 cells at IC20 incubated for 1 hr by CM-H2DCFDA staining based microplate reader analysis; assay type: functional, cell-based; conditions: U-87MG ATCC
[13] = system: U-87 MG; assay: Induction of endoplasmic reticulum stress in human U87 cells assessed as PDIA4 expression at IC20 after 2 hrs by ELISA relative to control; assay type: functional, U-87MG ATCC
[14] = species: Homo sapiens; assay: Inhibition of TrxR in human H7PX cells at IC20 incubated for 1 hr and measured after 4 hrs by TRFS-GREEN dye based fluorescence microscopic analysis; assay type: cell-based
[15] = system: U-87MG ATCC; assay: Inhibition of TrxR in human U87 cells at IC20 incubated for 1 hr and measured up to 4 hrs by DNTB-reagent based colorimetric assay; assay type: cell-based
[16] = system: U-87 MG; assay: Inhibition of protein synthesis in human U87 cells at IC20 for 14 hrs in presence of labeled methionine by fluorescence microscopic analysis; assay type: functional, cell-based; conditions: U-87MG ATCC
[17] = system: U-87 MG; assay: Induction of endoplasmic reticulum stress in human U87 cells assessed as GRP78 expression at IC20 after 1 hr by ELISA relative to control; assay type: functional, U-87MG ATCC
[18] = Antiproliferative activity against human H6PX cells assessed as reduction in cell viability after 14 hrs by CCK8 assay; assay type: functional, cell-based
[19] = Drug uptake in human U87 cells after 2 hrs by microbeta liquid scintillation counting analysis; assay type: ADME, cell-based; conditions: u-87mg atcc
[20] = system: U-87 MG; assay: Induction of endoplasmic reticulum stress in human U87 cells assessed as DNAJC3 expression at IC20 after 2 hrs by ELISA relative to control; assay type: functional, U-87MG ATCC
[21] = Induction of apoptosis in human H6PX cells assessed as apoptotic cells at IC20 after 4 hrs by AnnexinV-FITC/PI staining based flow cytometry analysis (reference value: 9.7%); assay type: functional
[22] = species: Homo sapiens; assay: Inhibition of TrxR in human […] cells assessed as reduction in intracellular thiol levels at IC20 after 1 hr by DNTB reagent based assay relative to control; assay type: cell-based; parameters: scale not given: the % may be the effect or the level left
[23] = system: U-87 MG; assay: Induction of endoplasmic reticulum stress in human U87 cells assessed as EDEM expression at IC20 after 1 hr by ELISA relative to control; assay type: functional, U-87MG ATCC
[24] = system: U-87 MG; assay: Induction of endoplasmic reticulum stress in human U87 cells assessed as GRP78 expression at IC20 after 2 hrs by ELISA relative to control; assay type: functional, U-87MG ATCC
[25] = species: Homo sapiens; assay: Inhibition of TrxR in human H6PX cells at IC20 incubated for 1 hr and measured up to 4 hrs by DNTB-reagent based colorimetric assay; assay type: cell-based
[26] = Induction of apoptosis in human H6PX cells assessed as reduction in bcl2 gene expression at IC20 after 4 hrs by RT-PCR analysis relative to untreated control; assay type: functional
[27] = system: U-87 MG; assay: Induction of endoplasmic reticulum stress in human U87 cells assessed as PDIA4 expression at IC20 after 1 hr by ELISA relative to control; assay type: functional, U-87MG ATCC
[28] = Induction of apoptosis in human H6PX cells assessed as increase in FASLG gene expression at IC20 after 4 hrs by RT-PCR analysis relative to untreated control; assay type: functional
[29] = system: U-87 MG; assay: Induction of endoplasmic reticulum stress in human U87 cells assessed as DDIT3 expression at IC20 after 1 hr by ELISA relative to control; assay type: functional, U-87MG ATCC
[30] = species: Homo sapiens; assay: Inhibition of protein synthesis in human H6PX cells at IC20 for 14 hrs in presence of labeled methionine by fluorescence microscopic analysis; assay type: functional, cell-based
[31] = Drug accumulation in human U87 cells after 2 hrs by microbeta liquid scintillation counting analysis; assay type: ADME, cell-based; conditions: u-87mg atcc
[32] = system: U-87 MG; assay: Induction of apoptosis in human U87 cells assessed as increase in FASLG gene expression at IC20 after 4 hrs by RT-PCR analysis relative to untreated control; assay type: functional, U-87MG ATCC
[33] = system: U-87 MG; assay: Anticlonogenic activity against human U87 cells assessed as ratio of the number of colonies to the number of cells seeded at IC20 incubated for 14 days followed by replating and measured after 2 weeks by crystal violet staining based microscopic analysis (reference value: 100%); assay type: functional, U-87MG ATCC
[34] = Anticlonogenic activity against human H7PX cells assessed as ratio of the number of colonies to the number of cells seeded at IC20 incubated for 14 days followed by replating and measured after 2 weeks by crystal violet staining based microscopic analysis (reference value: 100%); assay type: functional
[35] = species: Homo sapiens; assay: Inhibition of protein synthesis in human H7PX cells at IC20 for 14 hrs in presence of labeled methionine by fluorescence microscopic analysis; assay type: functional, cell-based
[36] = system: U-87MG ATCC; assay: Inhibition of TrxR in human U87 cells assessed as reduction in intracellular thiol levels at IC20 after 1 hr by DNTB reagent based assay relative to control; assay type: cell-based; parameters: scale not given: the % may be the effect or the level left
[37] = system: U-87 MG; assay: Induction of apoptosis in human U87 cells assessed as apoptotic cells at IC20 after 4 hrs by AnnexinV-FITC/PI staining based flow cytometry analysis (reference value: 6.9%); assay type: functional, U-87MG ATCC
[38] = species: Homo sapiens; assay: Inhibition of TrxR in human H7PX cells at IC20 incubated for 1 hr and measured up to 4 hrs by DNTB-reagent based colorimetric assay; assay type: cell-based
[39] = Induction of apoptosis in human H7PX cells assessed as apoptotic cells at IC20 after 4 hrs by AnnexinV-FITC/PI staining based flow cytometry analysis (reference value: 9.6%); assay type: functional
[40] = Induction of apoptosis in human H7PX cells assessed as increase in FASLG gene expression at IC20 after 4 hrs by RT-PCR analysis relative to untreated control; assay type: functional
[41] = system: U-87 MG; assay: Induction of endoplasmic reticulum stress in human U87 cells assessed as EDEM expression at IC20 after 2 hrs by ELISA relative to control; assay type: functional, U-87MG ATCC
[42] = Induction of apoptosis in human H7PX cells assessed as viable cells at IC20 after 4 hrs by AnnexinV-FITC/PI staining based flow cytometry analysis (reference value: 90.4%); assay type: functional
[43] = Antiproliferative activity against human H7PX cells assessed as reduction in cell viability after 14 hrs by CCK8 assay; assay type: functional, cell-based

## CC(=O)OC[C@H]1O[C@@H](S[C@@H]2CC(=O)[C@@H]3OC[C@H]2O3)[C@H](OC(C)=O)[C@@H](OC(C)=O)[C@@H]1OC(C)=O
[1]
  inhibition: Active
[2]
  Activity: 22.3%
[3]
  inhibition: Active
[4]
  Activity: 46%
[5]
  IC20: 51.4 µM
  IC50: 65.2 µM
[6]
  Activity: 37.8%
[7]
  Activity: 19.6%
[8]
  fold change (FC): -0.35
[9]
  fold change (FC): -0.69
[10]
  fold change (FC): 0.11
[11]
  fold change (FC): 1.07
[12]
  Activity: Active
[13]
  fold change (FC): 1.24
[14]
  inhibition: Active
[15]
  inhibition: Active
[16]
  inhibition: Active
[17]
  fold change (FC): 1.81
[18]
  IC20: 113 µM
  IC50: 133 µM
[19]
  Drug uptake: Active
[20]
  fold change (FC): 2.43
[21]
  Activity: 80.4%
[22]
  Activity: 19.7%
[23]
  fold change (FC): 2.39
[24]
  fold change (FC): 1.38
[25]
  inhibition: Active
[26]
  fold change (FC): -0.4
[27]
  fold change (FC): 1.9
[28]
  fold change (FC): 4.46
[29]
  fold change (FC): 7.01
[30]
  inhibition: Active
[31]
  Drug uptake: Not Active
[32]
  fold change (FC): 3.25
[33]
  Activity: 40%
[34]
  Activity: 63%
[35]
  inhibition: Active
[36]
  Activity: 11.8%
[37]
  Activity: 62.2%
[38]
  inhibition: Active
[39]
  Activity: 43.3%
[40]
  fold change (FC): 6.12
[41]
  fold change (FC): 1.1
[42]
  Activity: 56.7%
[43]
  IC20: 134 µM
  IC50: 158 µM

## O=C(O)c1ccccc1S[C@@H]1CC(=O)[C@@H]2OC[C@H]1O2
[4]
  Activity: 75%
[5]
  IC20: 784 µM
  IC50: 922 µM
[18]
  IC20: 922 µM
  IC50: 955 µM
[33]
  Activity: 86%
[34]
  Activity: 98%
[43]
  IC20: 654 µM
  IC50: 736 µM

Reference: ChEMBL document CHEMBL4610033, “(1-4)-Thiodisaccharides as anticancer agents. Part 5. Evaluation of anticancer activity and investigation of mechanism of action” (Bioorg Med Chem Lett, 2020)
